Laboratory results from patent US20240018105A1, “TROPOLONE DERIVATIVES AND TAUTOMERS THEREOF FOR IRON REGULATION IN ANIMALS” (Kinesid Therapeutics, Inc., priority 2019, published 2024).

Columns and labels:
[1] = Ligand facilitated Fe(III) efflux from liposomes; details: 10 uM ligand concentration
Procedure: Assay 1: Ligand Facilitated Fe(III) Efflux from Liposomes Preparation of POPC (1-palmitoyl-2-oleoyl-sn-glycero-3-phosphocholine): Cholesterol Liposomes:
A 1M buffer solution of MES and Tris was prepared by dissolving 121.14 grams of Tris base and 213.25 grams of MES hydrate in 500 mL of MilliQ water and adjusted to pH7.0 using an […] HCl solution before bringing the total volume of the solution to 1 L. A 500 mM solution of FeCl3 was prepared by dissolving 0.811 grams of anhydrous FeCl3 in 10 mL of a 0.1M H2SO4 aqueous solution. Inside buffer is prepared in a 50 mL falcon tube, which was added with 25 mL of MilliQ water, 1.61 g of sodium citrate, 1.5 mL of the above FeCl3 solution, and 2.5 mL of the 1M MES/Tris HCl buffer (pH=7.0), and finally additional MilliQ H2O to bring to a 50 mL final volume.
Lipid solution is prepared by dissolving 206.9 mg of POPC (1-palmitoyl-2-oleoyl-sn-glycero-3-phosphocholine) and 8.6 mg of cholesterol in 10 mL of ethanol.
The lipids solution and the inside buffer solution are independently loaded into 10 mL luer lock syringes for loading into a virgin cartridge on a Precision Nanosystems NanoAssembler to prepare unilamaller liposomes with the following parameters: 7.5 mL total volume, 1.5:1 mixing ratio of inside buffer:lipids solution, 8 mL/min flow rate, ambient temperature, 0.35 mL start waste, and 0.05 mL of end waste. 7.5 mL of liposomes is harvested for purification on a 6-inch long, 1-inch diameter Sephadex G-50 column wetted in 600 mM sodium ascorbate and 50 mM MES/Tris HCl pH 7.0 buffer. This buffer also serves as the column running buffer. The crude liposome solution is carefully loaded with minimal volume of running buffer above the top of the Sphadex, allowed to enter the matrix, and the column is run with the continued addition of running buffer. The eluting liposomes, observed as a milky and turbid solution, are collected until free iron begins to elute (observed as a deep purple color) and the fractions are pooled for phosphorus quantitation.
Phosphorus content of eluted liposomes was determined by the process outlined below. 10 uL of liposome elution and a running buffer blank are added to a 5 mL glass vial containing 450 uL of a 8.9 M aqueous H2SO4 solution, the mixture is heated to 225° C. for 25 minutes in an aluminum heat block to hydrolyze POPC and cooled for 5 minutes. 200 ul of a 30% hydrogen peroxide aqueous solution is added to each vial and heated to 225° C. for 25 minutes. After cooling, the phosphorus content was determined using an Abcam Phosphate Assay kit, with buffer subtracted phosphorus levels determined against a standard curve of phosphate included in the kit. Liposomes were diluted to 1 mM phosphate in Running Buffer for use in assays after accounting for dilutions made during phospholipid digestion.
Determination of the rate at which a small molecule ligand liberates (transport) Ferric iron from liposomes is performed in clear bottom black 384-well plates on a Spectramax i3x set to read the absorbance at 562 nm in the kinetic mode every 60 seconds for 120 minutes. 1 uL of serially diluted DMSO stock solution of a small molecule ligand is added to wells in triplicate to give the final concentrations of 40, 20, 10, 5, 2.5, and 1.25 uM of the ligand at 80 μL final volume, followed by addition of 1 μL of 100 mM Ferrozine in water to give a final concentration of 1 mM ferrozine. 78 uL of liposomes diluted to 1 mM phosphorus in running buffer is added to wells as quickly as possible (using a digital repeater mulchannel pipette) with the kinetic read initiated as rapidly as possible after addition of liposomes to all wells. Typically, eight compounds at six concentrations are tested in triplicate simultaneously.
Upon completion of kinetic read, the data for individual reads is fitted to a single phase association regression with the equation Y=(Y0−YMax)^(−kX)+YMax, with Y being the 562 absorbance value and X being time in minutes. […]

[2] = system: DMT1-deficient Caco-2 cells; assay: shDMT1-Caco2 55Fe transport assay; type: cell-based; details: Caco-2
From the text: Assay 2: shDMT1-Caco2 ^55Fe Transport Assay to Assess Ligand Ability in Transporting Fe (III)
Cells: DMT1-deficient Caco-2 cells (alias: “shDMT1,” or “4A” cells) were from Grillo et al. Science, 2017, and were cryopreserved in liquid nitrogen prior to use.
Reagents and supplies: ^55FeCl3 was obtained from PerkinElmer (Boston, MA). Iron(III) chloride (FeCl3) hexahydrate was obtained from Sigma. Dulbecco's Modified Eagle Medium (DMEM), fetal bovine serum (FBS), L-glutamine, MEM nonessential amino acids, penicillin-streptomycin, G418, formic acid, methanol, high-purity water, ammonium formate, dimethyl sulfoxide (DMSO) were purchased from Fisher Scientific. Propranolol, atenolol and carbutamide were obtained from Sigma-Aldrich Chemical Company (St Louis, MO). Scintillation cocktail was obtained from Research Product International Co. (Mount Prospect, IL). Stericup filter system (PES membrane, 0.22 um pore size) was purchased from Fisher Scientific. Coming item #3378 24-well transwell insert plates. Test articles: known compounds hinokitiol and deferiprone were purchased from Sigma. They are tested side by side with the small molecule ligands disclosed in this application. DMSO stocks (10 mM, which is 1,000× of the 10 μM dose level) of hinokitiol or test articles were prepared. A stock solution of 25 mM deferiprone in DMSO was prepared. The DMSO stock solutions were stored at −20° C. or below when not in use.
The growth medium was prepared according to the following table
Apical media (serum free DMEM, 10 mM MES, pH 6.5) was prepared. Apical master mix media was prepared fresh with the addition of 200 nM ^55Fe before each experiment. For the negative control propranolol and atenolol wells, 200 nM of non-radioactive iron was used.
The basolateral media was serum-free DMEM, 10 mM HEPES, 2% bovine serum albumin (BSA), pH 7.4.
For each experiment, cells were seeded into the 24-well transwell plates (0.5 mL of 50,000 cells/mL) with growth media. The basolateral companion plate was loaded with 1 mL of growth media. After 12-24 hr, both the apical and basolateral chamber were replaced with growth media. The apical media was changed 3× per week for 21-28 days, including a media change exactly 48 hr before the assay date.
On the assay day, the TEER values were measured and the average TEER values was obtained. Individual wells with TEER vaule >35% lower than the average of all wells were excluded. For the qualified wells, the apical layer (twice) and basolaterial (once) chambers were washed with PBS. The basolateral companion plate was then filled with 1 mL of basolateral media. Via addition down the side-wall of the apical well, 300 μL per well of the apical assay master mix, with the indicated dose level of test article, was added. Each dose was tested in triplicate. The plates were incubated (5% CO2 and 90% humidity at 37° C.) for the indicated timepoints. At each indicated timepoint, the basolateral supernatant was gently mixed via pipetting, and 200 μL of the basolateral supernatant was transferred to scintillation vials. To each scintillation counting vial, 5 mL of scintillation cocktail fluid was added. For each scintillation vial, the radioactivity (CPM) was determined with liquid scintillation counter LS6500. The counting time per vial was 5 min.
All raw CPM values are divided by the average value of blank DMSO solution to give a fold of change above the DMSO value. The mean and standard deviation of each compound at each concentration level and at each time point measured was calculated to give the fold change (fc) value.
For rank order compounds, the fc value of a ligand at 4 h time point is further divided by the fold change (fc) value of hinokitiol (a positive control compound) at an equimolar concentration to arrive at the FC (normalized fold of change) value. Data reported in Tables 1 and 2 is 4 hr time point FC=fc-ligand @ 3 uM/fc-hino @ 3 uM, and FC hino=1.

Mouse 6-hour PK study = details: in vivo
From the text: Compounds of the present disclosure were further evaluated in standard in vitro and in vivo Absorption, Distribution, Metabolism, Excretion (ADME) and Drug Metabolism and Pharmacokinetics (DMPK) assays to assess drug profiles important for further drug development.
Such assessments included human and mouse liver microsomal stability assays as well as 6-hour mouse PK studies.

| Structure (SMILES) | Liposome Fe transport kefflux at 10 10 μM ([1]; Table 1) | Caco2 shDMT1 transport FC @ 3 μM, 4h [2] | other results |
| --- | --- | --- | --- |
| O=c1cccc(-c2cnc(N3CCOCC3)nc2)cc1O [Ex.42, 2-hydroxy-4-(2-morpholinopyrimidin-5-yl)cyclohepta-2,4,6-trien-1-one] | 7.5-10 | 0.01-0.5 | – |
| Cc1c(F)cncc1-c1cccc(=O)c(O)c1 [Ex.46, 4-(5-fluoro-4-methylpyridin-3-yl)-2-hydroxycyclohepta-2,4,6-trien-1-one] | 5-7.5 | 0.01-0.5 | – |
| O=c1c(O)ccccc1-c1ccncn1 [Ex.47, 2-hydroxy-7-(pyrimidin-4-yl)cyclohepta-2,4,6-trien-1-one] | 0.1-5 | 0.01-0.5 | – |
| O=C(O)C(F)(F)F.O=c1cccc(-c2ccncn2)cc1O [Ex.48, 2-hydroxy-4-(pyrimidin-4-yl)cyclohepta-2,4,6-trien-1-one] | 0.1-5 | 0.01-0.5 | – |
| O=c1ccc(-c2ccncn2)ccc1O [Ex.49, 2-hydroxy-5-(pyrimidin-4-yl)cyclohepta-2,4,6-trien-1-one] | 0.1-5 | 0.01-0.5 | – |
| O=c1cccc(-c2ccncc2F)cc1O [Ex.50, 4-(3-fluoropyridin-4-yl)-2-hydroxycyclohepta-2,4,6-trien-1-one] | 0.1-5 | 0.01-0.5 | – |
| O=c1ccc(-c2cnccc2F)ccc1O [Ex.51, 5-(4-fluoropyridin-3-yl)-2-hydroxycyclohepta-2,4,6-trien-1-one] | 5-7.5 | 0.01-0.5 | – |
| O=c1cccc(-c2cnccc2F)cc1O [Ex.52, 4-(4-fluoropyridin-3-yl)-2-hydroxycyclohepta-2,4,6-trien-1-one] | 0.1-5 | 0.01-0.5 | – |
| Cc1ncccc1-c1cccc(=O)c(O)c1 [Ex.53, 2-hydroxy-4-(2-methylpyridin-3-yl)cyclohepta-2,4,6-trien-1-one] | 0.1-5 | 0.01-0.5 | – |
| COc1ncccc1-c1cccc(=O)c(O)c1 [Ex.54, 2-hydroxy-4-(2-methoxypyridin-3-yl)cyclohepta-2,4,6-trien-1-one] | 10-25 | 0.01-0.5 | – |
| Cc1cc(-c2cccc(=O)c(O)c2)cnc1N [Ex.56, 4-(6-amino-5-methylpyridin-3-yl)-2-hydroxycyclohepta-2,4,6-trien-1-one] | 0.1-5 | 0.01-0.5 | – |
| Cc1ncc(F)cc1-c1cccc(=O)c(O)c1 [Ex.58, 4-(5-fluoro-2-methylpyridin-3-yl)-2-hydroxycyclohepta-2,4,6-trien-1-one] | 0.1-5 | 0.01-0.5 | – |
| Cc1ncc(-c2ccc(O)c(=O)cc2)cc1F [Ex.59, 5-(5-fluoro-6-methylpyridin-3-yl)-2-hydroxycyclohepta-2,4,6-trien-1-one] | 5-7.5 | 0.01-0.5 | – |
| CC(C)c1ccc(O)c(=O)c(-c2cncc(F)c2)c1 [Ex.61, 2-(5-fluoropyridin-3-yl)-7-hydroxy-4-isopropylcyclohepta-2,4,6-trien-1-one] | 7.5-10 | 0.01-0.5 | – |
| O=c1ccccc(-c2cccc(F)n2)c1O [Ex.69, 3-(6-fluoropyridin-2-yl)-2-hydroxycyclohepta-2,4,6-trien-1-one] | – | 0.01-0.5 | Liposome Fe transport Kefflux at 10 μM ([1]; Table 2): 10-25 |
| O=c1ccccc(-c2cc(F)ccn2)c1O [Ex.70, 3-(4-fluoropyridin-2-yl)-2-hydroxycyclohepta-2,4,6-trien-1-one] | – | 0.01-0.5 | Liposome Fe transport Kefflux at 10 μM ([1]; Table 2): 10-25 |
| O=c1ccccc(-c2cncs2)c1O [Ex.75, 2-hydroxy-3-(thiazol-5-yl)cyclohepta-2,4,6-trien-1-one] | – | 0.5-1 | Liposome Fe transport Kefflux at 10 μM ([1]; Table 2): 0.1-5 |
| O=c1ccccc(-c2cscn2)c1O [Ex.76, 2-hydroxy-3-(thiazol-4-yl)cyclohepta-2,4,6-trien-1-one] | – | 0.5-1 | AUC(0-t) (Mouse 6-hour PK study): 500 to 1500 ng·h/mL; Cmax (Mouse 6-hour PK study): 1500 to 5000 ng/mL; half-life (Mouse 6-hour PK study): < 75 min; mouse 6-hour PK properties compared to hinokitiol (Mouse 6-hour PK study): one or more improved mouse 6-hour PK properties compared to hinokitiol |
| Cc1c(O)c(=O)ccn1C [deferiprone, reference compound] | – | 0.02-0.03 | Liposome Fe transport Kefflux at 10 μM ([1]; Table 1): 0 |
